Values quoted from earlier work, collected in US20240261419A1, “[…] PSILOCIN CONJUGATES FOR TREATMENT OF MENTAL ILLNESSES” (LONDON PHARMACEUTICALS AND RESEARCH CORPORATION, priority 2021, published 2024).
Where two headings read alike, the source gives them in different places.

Settings: background comparison of pharmacokinetic profiles

SMILES	time to reach maximum plasma level (CBD) [h]	time to reach maximum plasma level (psilocybin) [h]
C=C(C)[C@@H]1CCC(C)=C[C@H]1c1c(O)cc(CCCCC)cc1O [CBD, cannabidiol]	4 to 6	–
CN(C)CCc1c[nH]c2cccc(OP(=O)(O)O)c12 [psilocy bin, psilocybin]	–	1.5
